The values that follow come from US8480638B2, “Intraocular iontophoretic device and associated methods” (Aciont, Inc., priority 2007, dated 2013).

Data set [1] in a line: MRI distribution of Mn^++ in the rabbit eye after iontophoresis with a handheld ocular iontophoretic device. The data set is classed as in vivo. As to conditions: finger pressure, hydrogel 1.0M Mn^++, 2 mA for 20 minutes, return electrode on ear, 3 Tesla MRI, FIG. 7. The source says:
A handheld ocular iontophoretic device is constructed from a plastic tube, wherein one end is shaped to conform to the eye of a rabbit. An electroplated AgAgCl electrode is positioned in one end of the plastic tube and a hydrogel is inserted into the tube so that one side of the hydrogel contacts the electrode, while the opposite side is configured to contact the eye. The hydrogel has been previously loaded with 1.0M Mn^++. The iontophoretic device is coupled to a power source and placed against the surface of an eye of a rabbit, partially within the cul-de-sac in a dorsal location. A return electrode is attached to the ear of the rabbit, and finger pressure is used to seal the device against the eye. 2 mA of current is applied to the iontophoretic device for 20 minutes to deliver the Mn^++ from the hydrogel and into the eye.

A short description of data set [2]: MRI distribution of Mn^++ in the rabbit eye after iontophoresis with an iontophoretic scleral lens device with suction. The data set is classed as in vivo. The following applies: suction applied, hydrogel 1.0M Mn^++, 3 mA for 20 minutes, 3 Tesla MRI, FIG. 8. The source says:
An iontophoretic scleral lens device is configured to conform to the eye of a rabbit. An electroplated AgAgCl electrode coupled to a 1.0M Mn^++ filled hydrogel is located within a reservoir structure along the contact surface of the scleral lens. The iontophoretic device is coupled to a power source and positioned on an eye of a rabbit, such that the reservoir is located partially within the cul-de-sac in a dorsal region of the eye. A return electrode is attached to the ear of the rabbit, and suction is applied to the scleral lens to preclude movement of the lens relative to the eye surface. 3 mA of current is applied to the scleral lens device for 20 minutes to deliver the Mn^++ from the hydrogel and into the eye. […] Diffusion from this region can be seen in the white band extending toward the posterior eye tissues.

In the case of `[Mn+2]` [Mn^++], the “Distribution of the Mn^++ within the eye of the rabbit (MRI, white contrast)” value in data set [1] was “delivered primarily to the eyelid and surrounding tissues with relatively little delivery into the eye itself”; in data set [2] (return electrode on ear), “delivered primarily into the eye tissues”. The “Depot formation in the eye (MRI, black region along the dorsal region of the eye)” value in data set [2] is given as “formation of a depot of concentrated Mn^++”.
